Measurements published in the Biogen ADME set (Fang et al. 2023).
In brackets after ≈: the same amount, converted by molar mass.

Conditions: for aqueous solubility: pH 6.8

Row | Structure (SMILES) | MDR1-MDCK efflux ratio | intrinsic clearance, human liver microsomes | intrinsic clearance, rat liver microsomes | aqueous solubility | fraction unbound, human plasma | fraction unbound, rat plasma
1 | CCn1nc(CNC(=O)c2nc(C)c[nH]2)c2ccccc21 | 5.37 | 11.2 mL/min/kg | 236 mL/min/kg |  |  | 
2 | Cc1nnc2ccc(N3CCC4(CCCCC4)C3)nn12 | 0.709 | 33.2 mL/min/kg | 600 mL/min/kg |  |  | 
3 | O=C(CCCc1nc2ccccc2[nH]1)N1CCCC1 | 17.5 | ≤ 4.74 mL/min/kg | 85 mL/min/kg | 35.8 µg/mL (≈ 139 µM) |  | 
4 | COc1ccc2nc(C(=O)Nc3cnc4c(cnn4C(C)C)c3)ccc2c1 | 0.464 |  |  | 0.15 µg/mL (≈ 0.415 µM) |  | 
5 | CC1CCN(C(=O)c2n[nH]c3ccccc23)CC1 | 0.561 | 21.4 mL/min/kg | 916 mL/min/kg | 26.4 µg/mL (≈ 109 µM) |  | 
6 | O=C(Nc1nc2c(s1)COc1ccccc1-2)c1cnc(Cl)c(Cl)c1 | 1.02 | 33.8 mL/min/kg | 279 mL/min/kg | 3.7 µg/mL (≈ 9.78 µM) |  | 
7 | CC(C)C(=O)Nc1ncc(-c2ccccc2)s1 | 0.393 |  |  | 0.55 µg/mL (≈ 2.23 µM) |  | 
8 | CCc1nccn1Cc1nc(N)nc(N(C)C)n1 | 18.5 | ≤ 4.74 mL/min/kg | 17.3 mL/min/kg |  |  | 
9 | CNC(=O)CN(C)c1cccc(F)c1C#N | 0.738 | ≤ 4.74 mL/min/kg | 15.2 mL/min/kg | 34.1 µg/mL (≈ 154 µM) |  | 
10 | N#Cc1cccc(-c2ccc(=O)n3c2[C@@H]2C[C@@H](CN(Cc4cccs4)C2)C3)c1 | 7.04 | 396 mL/min/kg | 2000 mL/min/kg | 48.9 µg/mL (≈ 126 µM) |  | 
11 | CN(CCc1ccccn1)c1cnc2ccccc2n1 | 0.64 | 86.3 mL/min/kg | 862 mL/min/kg | 44.5 µg/mL (≈ 169 µM) |  | 
12 | N#Cc1c(O)c(Cl)c(Cl)c(C#N)c1Cl |  |  |  | 31.3 µg/mL (≈ 126 µM) |  | 
13 | Cc1nnc(-c2ccccc2NCc2ccsc2)o1 | 0.204 |  |  | 0.93 µg/mL (≈ 3.43 µM) |  | 
14 | COc1ccc(-c2cccc(C3CCCN(CC(=O)Nc4ccccn4)C3)n2)cc1 (stereo not drawn) | 0.833 | 131 mL/min/kg | 2220 mL/min/kg | 8.1 µg/mL (≈ 20.1 µM) |  | 
15 | CC(C)c1nc(NCc2cccnc2)n(C)n1 | 3.72 | ≤ 4.74 mL/min/kg | ≤ 10.7 mL/min/kg | 38.2 µg/mL (≈ 165 µM) |  | 
16 | N=C(NC(=O)OCc1ccccc1)c1ccc(CN)cc1 |  |  |  | 30.6 µg/mL (≈ 108 µM) |  | 
17 | CN1C(=O)COc2cc(NC(=O)C3CC=CC3)ccc21 |  | ≤ 4.74 mL/min/kg | 92.7 mL/min/kg |  |  | 
18 | COCc1noc(-c2ccc(-c3cc(C)cc(C)c3)nc2)n1 | 0.295 |  |  | 0.21 µg/mL (≈ 0.711 µM) |  | 

Row | Structure (SMILES) | MDR1-MDCK efflux ratio | intrinsic clearance, human liver microsomes | intrinsic clearance, rat liver microsomes | aqueous solubility | fraction unbound, human plasma | fraction unbound, rat plasma
19 | CCCCOc1ccc(-c2cc3c(=O)[nH]ccn3n2)cc1 | 0.743 |  |  | 0.2 µg/mL (≈ 0.706 µM) |  | 
20 | CC(C)(Oc1ccc(-c2cnc(N)c(-c3ccc(Cl)cc3)c2)cc1)C(=O)O |  |  |  | 45.4 µg/mL (≈ 119 µM) | 0.0007 | 0.0004
21 | COc1cccc(/C=C2/N=C(c3ccccc3C)NC2=O)c1OC |  |  |  | 0.35 µg/mL (≈ 1.09 µM) |  | 
22 | CCC(=O)NCc1ccnc(N(C)C)c1 | 0.879 | ≤ 4.74 mL/min/kg | ≤ 10.7 mL/min/kg | 30.6 µg/mL (≈ 147 µM) |  | 
23 | Cc1ccccc1N1C(=O)c2ccc(C(=O)NC(C)(C)C)cc2C1=O |  |  |  | 49.9 µg/mL (≈ 148 µM) |  | 
24 | CO[C@H]1CC[C@H](C(=O)NC[C@H]2CC[C@H](c3nnc(-c4nccc5ccccc45)o3)CC2)CC1 | 8.64 | 103 mL/min/kg | 378 mL/min/kg | 21.2 µg/mL (≈ 47.3 µM) |  | 
25 | Cc1nn(C)c2ncnc(N(C)Cc3cccc(Cl)c3)c12 | 0.569 | 28.3 mL/min/kg | 652 mL/min/kg | 22.5 µg/mL (≈ 74.5 µM) |  | 
26 | CCN1CCc2ncnc(N3CCNc4ccccc4C3)c2C1 | 1.78 | ≤ 4.74 mL/min/kg | 105 mL/min/kg | 52.1 µg/mL (≈ 168 µM) |  | 
27 | CN(CCc1ccncc1)c1ncccc1C#N | 0.743 | 44.3 mL/min/kg | 552 mL/min/kg |  |  | 
28 | CCCN(CCC1=CCCCC1)C(=O)Cc1n[nH]c(=O)[nH]1 | 11.3 | ≤ 4.74 mL/min/kg | 1270 mL/min/kg |  |  | 
29 | CS(=O)(=O)Nc1ccccc1-c1ccncc1 | 1.27 | ≤ 4.74 mL/min/kg | 100 mL/min/kg |  |  | 
30 | CC(=O)Nc1cc(CCC2CCNCC2)ccn1 | 2.42 | ≤ 4.74 mL/min/kg | ≤ 10.7 mL/min/kg | 51 µg/mL (≈ 206 µM) |  | 
31 | Cc1c(C(=O)NCc2cnc(N(C)C)n2C)sc2ccccc12 | 5 | 17.9 mL/min/kg | 318 mL/min/kg | 51 µg/mL (≈ 155 µM) |  | 
32 | Cc1ncc(C)n2nc([C@@H]3C[C@H]3c3nc4c5cccnc5ccn4c3C)nc12 | 1.4 | 16.1 mL/min/kg | 82.1 mL/min/kg |  |  | 
33 | CN(C)[C@@H]1CN(C(=O)COc2ccccc2)C[C@H]1O |  | ≤ 4.74 mL/min/kg | 17.6 mL/min/kg | 83.3 µg/mL (≈ 315 µM) |  | 
34 | Cc1cc(Oc2ncccn2)ccc1NC(=O)c1c(C)oc(C)c1C | 0.8 | ≤ 4.74 mL/min/kg | 122 mL/min/kg | 55 µg/mL (≈ 163 µM) |  | 
35 | Cc1cc2c(s1)c1cnn(Cc3ccccc3F)c(=O)c1n2C |  | 326 mL/min/kg | 2650 mL/min/kg |  |  | 
36 | CN(C)C(=O)c1sc2nc(C3(C)CCN(c4ncccn4)CC3)ccc2c1N | 1.25 | 32 mL/min/kg | 111 mL/min/kg | 65.8 µg/mL (≈ 166 µM) |  | 

Second part, the molecule after the results:

Row | MDR1-MDCK efflux ratio | intrinsic clearance, human liver microsomes | intrinsic clearance, rat liver microsomes | aqueous solubility | fraction unbound, human plasma | fraction unbound, rat plasma | Structure (SMILES)
37 | 1.65 | 46.1 mL/min/kg | 345 mL/min/kg |  |  |  | COc1cc(-c2ccc(Cn3nc(C)cc3C)cn2)cc(OC)c1OC
38 | 0.707 | 16.4 mL/min/kg | 59.2 mL/min/kg | 24.8 µg/mL (≈ 91.7 µM) |  |  | COc1ccc(Br)c(-c2nnc(N)o2)c1
39 | 0.663 | ≤ 4.74 mL/min/kg | 69.7 mL/min/kg |  |  |  | CC1(C)CCCN1C(=O)c1c(F)cc(C#N)cc1F
40 |  | 137 mL/min/kg | 4160 mL/min/kg |  |  |  | Cc1cc(C)c(S(=O)(=O)Nc2ccccc2)c(C)c1
41 | 1.33 | 10.7 mL/min/kg | 50 mL/min/kg |  |  |  | CCc1nc(N2CC(CO)C2)c2ccsc2n1
42 | 0.383 | 126 mL/min/kg | 1530 mL/min/kg |  |  |  | C1CN(c2nc3c(c(N4CCSCC4)n2)SCC3)CCS1
43 | 0.531 | 15.1 mL/min/kg | 288 mL/min/kg |  |  |  | Cc1csc(Cc2nc(-c3ccc(O)cc3)no2)n1
44 | 5.44 | 25.4 mL/min/kg | 62.9 mL/min/kg |  |  |  | C[C@]12C=CC(=O)C=C1CC[C@@H]1[C@@H]2[C@@H](O)C[C@@]2(C)[C@H]1CC[C@]2(O)C(=O)CO
45 | 0.729 | 21.2 mL/min/kg | 78.1 mL/min/kg |  |  |  | Cc1nccc(NC(=O)c2ccncc2Cl)c1Cl
46 | 0.62 | 230 mL/min/kg | 5760 mL/min/kg |  |  |  | CN(Cc1cnc2ccccc2n1)S(=O)(=O)N1CCCCCC1
47 |  | 156 mL/min/kg | 969 mL/min/kg | 34.8 µg/mL (≈ 99.7 µM) |  |  | O=C(Nc1cc(Cl)ccc1Cl)c1cccc(N2CCCC2=O)c1
48 | 0.573 | 7.82 mL/min/kg | 57.1 mL/min/kg | 7.94 µg/mL (≈ 27.1 µM) |  |  | Cc1noc(-c2ccc(NC(=O)Cc3ccccc3)cc2)n1
49 |  | 32.1 mL/min/kg |  |  |  |  | Cc1cccc(/C=N/Nc2cc(N3CCOCC3)n3nc(-c4ccncc4)cc3n2)c1
50 |  |  |  | 29.2 µg/mL (≈ 144 µM) |  |  | N#Cc1cnn(-c2ccc(F)cc2)c1N
51 | 21.8 | 7.73 mL/min/kg | 20.9 mL/min/kg | 48.3 µg/mL (≈ 140 µM) |  |  | CC(=O)NC1(C(=O)N2CCCN(c3cccnn3)CC2)CCCCC1
52 | 90.9 | 51.7 mL/min/kg | 199 mL/min/kg | 33.6 µg/mL (≈ 100 µM) |  |  | CCCn1ncc2[nH]c(-c3cc(Cn4cncn4)c(C)cc3C)nc21
53 | 0.723 |  |  | 0.31 µg/mL (≈ 0.79 µM) |  |  | Cc1cc(F)ccc1S(=O)(=O)N1CCCc2cnc(N3CCOCC3)nc21
54 | 0.975 | ≤ 4.74 mL/min/kg | 144 mL/min/kg | 47.8 µg/mL (≈ 174 µM) |  |  | CC(C)(C)c1ccc(CN2CCC(C(N)=O)CC2)cc1
55 | 0.685 | 149 mL/min/kg | 2090 mL/min/kg | 52.2 µg/mL (≈ 150 µM) |  |  | Cc1cc(C)c2c(c1)CCCN2C(=O)c1ccc(-c2nnc(C)o2)cc1
56 |  | 87.1 mL/min/kg | 1010 mL/min/kg | 57.4 µg/mL (≈ 168 µM) |  |  | O=C(C1CCCN(C(=O)N2CCCC2)C1)N1CCc2ccccc2C1 (stereo not drawn)
57 | 1.41 | 22.2 mL/min/kg | 50.7 mL/min/kg |  |  |  | CCCC(=O)Nc1ccc(C(=O)N(C)C)cc1
58 | 2.62 | ≤ 4.74 mL/min/kg | 20.6 mL/min/kg | 40.9 µg/mL (≈ 169 µM) |  |  | CCNC(=O)c1ccc(CS(C)(=O)=O)cc1
59 | 3.21 | ≤ 4.74 mL/min/kg | 80.5 mL/min/kg | 18.6 µg/mL (≈ 72.7 µM) |  |  | c1cc2cc[nH]c2c(CC2CN(C3CCCC3)C2)n1
60 | 0.766 | ≤ 4.74 mL/min/kg | 96 mL/min/kg | 78.5 µg/mL (≈ 248 µM) |  |  | Cc1nc(-c2ccccc2)ccc1C(=O)N1CCCS1(=O)=O
61 | 0.889 | 24.7 mL/min/kg | 694 mL/min/kg | 14 µg/mL (≈ 47.9 µM) |  |  | OC[C@@H](c1ccccc1)n1cc(CCc2ccccc2)nn1
